This note sets out measurements from patent US9399636B2, “Substituted dipyridylamines and uses thereof” (Genentech, Inc., priority 2012, dated 2016).

This experiment has as its target T1, DLK (Homo sapiens, UniProt Q12852).
T1 construct: N-terminally GST-tagged DLK (catalytic domain amino acid 1-520) (Carna Bioscience); GST (N); purchased Carna Bioscience
T1 sequence (Q12852 1-520): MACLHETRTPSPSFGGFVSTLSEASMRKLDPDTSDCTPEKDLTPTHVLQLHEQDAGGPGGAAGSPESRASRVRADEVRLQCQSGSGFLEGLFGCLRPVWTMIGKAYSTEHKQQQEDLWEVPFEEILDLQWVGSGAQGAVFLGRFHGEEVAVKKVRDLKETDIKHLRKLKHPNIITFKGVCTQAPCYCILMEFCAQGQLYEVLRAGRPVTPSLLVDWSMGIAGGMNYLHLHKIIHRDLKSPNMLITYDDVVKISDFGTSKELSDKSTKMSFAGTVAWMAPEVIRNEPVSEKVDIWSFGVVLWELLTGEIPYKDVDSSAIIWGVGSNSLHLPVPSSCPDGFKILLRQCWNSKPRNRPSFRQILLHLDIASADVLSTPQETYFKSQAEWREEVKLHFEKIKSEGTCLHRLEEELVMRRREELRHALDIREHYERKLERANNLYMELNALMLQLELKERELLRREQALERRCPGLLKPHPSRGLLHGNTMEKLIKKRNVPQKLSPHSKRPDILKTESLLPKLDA
In words: DLK TR-FRET assay. Format: biochemical. The settings on record: 5 nM GST-tagged DLK (catalytic domain amino acid 1-520), 40 nM HIS-tagged MKK4 K131M substrate, 30 μM ATP, 60 minutes. A digest of the protocol:
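5 nM GST-tagged DLK catalytic domain (aa 1-520) with 40 nM HIS-MKK4 K131M substrate and 30 μM ATP in HEPES pH 7.5/MgCl2 buffer. Compounds tested in 1:3 serial dilution from 20 uM, 60 min at ambient temperature. EDTA quench, then 3 h with Eu-anti-phospho-MKK4 and D2-anti-HIS before TR-FRET read (665/615 nm).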

With `N#Cc1ccnc(Nc2cc(C3CCOCC3)cc(N3CC4(CCOC4)C3)n2)c1` [Example 102, 2-[6-(6-Oxa-2-aza-spiro[3.4]oct-2-yl)-4-(tetrahydro-pyran-4-yl)-pyridin-2-ylamino]-isonicotinonitrile], affinity was put at a Ki of 88 nM. This counts as double-digit nanomolar. For the compound `N#Cc1ccnc(Nc2cc(C3CCOCC3)cc(N3CC4(CCC4(F)F)C3)n2)c1` [Example 103, 2-[6-(5,5-Difluoro-2-aza-spiro[3.3]hept-2-yl)-4-(tetrahydro-pyran-4-yl)-pyridin-2-ylamino]-isonicotinonitrile], the affinity, expressed as Ki, was 16 nM. Next, `N#Cc1ccnc(Nc2cc(C3CCOCC3)cc(N3CC(F)(F)C3)n2)c1` [Example 104, 2-[6-(3,3-Difluoro-azetidin-1-yl)-4-(tetrahydro-pyran-4-yl)-pyridin-2-ylamino]-isonicotinonitrile]: 12.6 nM; `N#Cc1ccnc(Nc2cc(C3CCN(C4COC4)CC3)cc(N3CCC3)n2)c1` [Example 105, 2-(6-Azetidin-1-yl-1′-oxetan-3-yl-1′,2′,3′,4′,5′,6′-hexahydro-[4,4′]bipyridinyl-2-ylamino)-isonicotinonitrile]: 7 nM.

`N#Cc1ccnc(Nc2cc(C3CCN(C4COC4)CC3)cc(Cl)n2)c1` [Example 106, 2-(6-Chloro-1′-oxetan-3-yl-1′,2′,3′,4′,5′,6′-hexahydro-[4,4′]bipyridinyl-2-ylamino)-isonicotinonitrile] registered a Ki of 10 nM.

As for `Cc1cc(C2CCN(C(=O)C(F)(F)F)CC2)cc(Nc2cc(C#N)ccn2)n1` [Example 107, 2-[6-Methyl-1′-(2,2,2-trifluoro-acetyl)-1′,2′,3′,4′,5′,6′-hexahydro-[4,4′]bipyridinyl-2-ylamino]-isonicotinonitrile], the Ki stood at 120 nM. As for `CC(=O)N1CCC(c2cc(C)nc(Nc3cc(C#N)ccn3)c2)CC1` [Example 108, 2-(1′-Acetyl-6-methyl-1′,2′,3′,4′,5′,6′-hexahydro[4,4′]bipyridinyl-2-ylamino)-isonicotinonitrile], the Ki turned out to be 93 nM. This Ki and that of the compound before are within 1.5-fold of each other.

In turn, `Cc1cc(C2CCN(S(C)(=O)=O)CC2)cc(Nc2cc(C#N)ccn2)n1` [Example 109, 2-(1′-Methanesulfonyl-6-methyl-1′,2′,3′,4′,5′,6′-hexahydro-[4,4′]bipyridinyl-2-ylamino)-isonicotinonitrile] displayed a Ki of 140 nM. For the compound `Cc1cc(C2CCN(C3COC3)CC2)cc(Nc2cc(C#N)ccn2)n1` [Example 110, 2-(6-Methyl-1′-oxetan-3-yl-1′,2′,3′,4′,5′,6′-hexahydro-[4,4′]bipyridinyl-2-ylamino)-isonicotinonitrile], the Ki turned out to be 93 nM.

`Cc1cc(C2CCNCC2)cc(Nc2cc(C#N)ccn2)n1` [Example 111, 2-(6-Methyl-1′,2′,3′,4′,5′,6′-hexahydro-[4,4′]bipyridinyl-2-ylamino)-isonicotinonitrile] registered a Ki of 89 nM. This Ki and that of the compound before are within 1.5-fold of each other. In the case of `Cc1cc(C2=CCOCC2)cc(Nc2cc(C#N)ccn2)n1` [Example 112, 2-[4-(3,6-Dihydro-2H-pyran-4-yl)-6-methyl-pyridin-2-ylamino]-isonicotinonitrile], affinity was put at a Ki of 220 nM. `Cc1cc(C2CCOCC2)cc(Nc2cc(CN)ccn2)n1` [Example 113, (4-Aminomethyl-pyridin-2-yl)-[6-methyl-4-(tetrahydro-pyran-4-yl)-pyridin-2-yl]-amine]: affinity was put at a Ki of 1600 nM. Compound `CC1CCCN1c1cc(C2CCN(CC3CCOCC3)C2)cc(Nc2cc(C#N)ccn2)n1` (stereo not drawn) [Example 115, 2-{6-(2-Methyl-pyrrolidin-1-yl)-4-[1-(tetrahydro-pyran-4-ylmethyl)-pyrrolidin-3-yl]-pyridin-2-ylamino}-isonicotinonitrile] displayed a Ki of 0.09 nM. `Cc1cc(C2CCN(C(=O)OC(C)(C)C)CC2)cc(Nc2cc(C#N)ccn2)n1` [Example 116, 2′-(4-Cyano-pyridin-2-ylamino)-6′-methyl-3,4,5,6-tetrahydro-2H-[4,4′]bipyridinyl-1-carboxylic acid tert-butyl ester] displayed a Ki of 215 nM.

Compound `FC1(F)CCN(c2cc(C3CN(C4COC4)C3)cc(Nc3cc(C(F)(F)F)ccn3)n2)C1` [Example 117, [6-(3,3-Difluoro-pyrrolidin-1-yl)-4-(1-oxetan-3-yl-azetidin-3-yl)-pyridin-2-yl]-(4-trifluoromethyl-pyridin-2-yl)-amine] had a Ki of 0.94 nM. Regarding `Cn1cc(-c2cc(C3CCOCC3)cc(Nc3cc(OC(F)F)ccn3)n2)cn1` [Example 118, (4-Difluoromethoxy-pyridin-2-yl)-[6-(1-methyl-1H-pyrazol-4-yl)-4-(tetrahydro-pyran-4-yl)-pyridin-2-yl]-amine], the affinity, expressed as Ki, was 4 nM. `CC(=O)N1CCC(c2cc(Nc3cc(C#N)ccn3)nc(N3CCC[C@H]3C)c2)CC1` [Example 119, 2-[1′-Acetyl-6-((R)-2-methyl-pyrrolidin-1-yl)-1′,2′,3′,4′,5′,6′-hexahydro-[4,4′]bipyridinyl-2-ylamino]-isonicotinonitrile] came in with an inhibitory constant (Ki) of 0.2 nM. `FC(F)(F)c1ccnc(Nc2cc(C3CCN(C4COC4)CC3)ccn2)c1` [Example 120, (1′-Oxetan-3-yl-1′,2′,3′,4′,5′,6′-hexahydro-[4,4′]bipyridinyl-2-yl)-(4-trifluoromethyl-pyridin-2-yl)-amine] had a Ki of 170 nM.

In turn, `C[C@@H]1CCCN1c1cc(C2CCN(C3COC3)CC2)cc(Nc2cc(C#N)ccn2)n1` [Example 121, 2-[6-((R)-2-Methyl-pyrrolidin-1-yl)-1′-oxetan-3-yl-1′,2′,3′,4′,5′,6′-hexahydro-[4,4′]bipyridinyl-2-ylamino]-isonicotinonitrile] showed a Ki of 0.2 nM. `Cn1cc(-c2cc(C3CCOCC3)cc(Nc3cc(C(F)(F)F)ccn3)n2)cn1` [Example 122, [6-(1-Methyl-1H-pyrazol-4-yl)-4-(tetrahydro-pyran-4-yl)-pyridin-2-yl]-(4-trifluoromethyl-pyridin-2-yl)-amine]: the inhibitory constant (Ki) stood at 0.4 nM.

`C[C@@H]1CCCN1c1cc(C2CCOCC2)cc(Nc2cc(C#N)ccn2)n1` [Example 123, 2-[6-((R)-2-Methyl-pyrrolidin-1-yl)-4-(tetrahydro-pyran-4-yl)-pyridin-2-ylamino]-isonicotinonitrile] came in with a Ki of 0.2 nM. Consider `N#Cc1ccnc(Nc2cc(C3CCN(C4COC4)CC3)ccn2)c1` [Example 124, 2-(1′-Oxetan-3-yl-1′,2′,3′,4′,5′,6′-hexahydro-[4,4′]bipyridinyl-2-ylamino)-isonicotinonitrile], for which the inhibition constant Ki worked out at 710 nM. Against the preceding compound, the Ki is about 3600-fold higher.

As to `C[C@@H]1CCCN1c1cc(C2CCOCC2)cc(Nc2cc(C(F)(F)F)ccn2)n1` [Example 125, [6-((R)-2-Methyl-pyrrolidin-1-yl)-4-(tetrahydro-pyran-4-yl)-pyridin-2-yl]-(4-trifluoromethyl-pyridin-2-yl)-amine], the affinity corresponds to a Ki of 3.1 nM. Take `CS(=O)(=O)N1CC(c2cc(Nc3cc(C(F)(F)F)ccn3)nc(N3CCC(F)(F)C3)c2)C1` [Example 126, [6-(3,3-Difluoro-pyrrolidin-1-yl)-4-(1-methanesulfonyl-azetidin-3-yl)-pyridin-2-yl]-(4-trifluoromethyl-pyridin-2-yl)-amine]: the affinity corresponds to a Ki of 6.6 nM. `CC(=O)N1CC(c2cc(Nc3cc(C(F)(F)F)ccn3)nc(N3CCC(F)(F)C3)c2)C1` [Example 127, 1-{3-[2-(3,3-Difluoro-pyrrolidin-1-yl)-6-(4-trifluoromethyl-pyridin-2-ylamino)-pyridin-4-yl]-azetidin-1-yl}-ethanone] had a Ki of 2.9 nM. Take `CS(=O)(=O)N1CCC(c2ccnc(Nc3cc(C#N)ccn3)c2)CC1` [Example 128, 2-(1′-Methanesulfonyl-1′,2′,3′,4′,5′,6′-hexahydro-[4,4′]bipyridinyl-2-ylamino)-isonicotinonitrile]: the Ki was determined as 450 nM. As for `CC(=O)N1CCC(c2ccnc(Nc3cc(C#N)ccn3)c2)CC1` [Example 129, 2-(1′-Acetyl-1′,2′,3′,4′,5′,6′-hexahydro-[4,4′]bipyridinyl-2-ylamino)-isonicotinonitrile], the Ki was determined as 510 nM.

In turn, `N#Cc1ccnc(Nc2cc(C3CCOCC3)cc(N3CCC(F)(F)C3)n2)c1` [Example 130, 2-[6-(3,3-Difluoro-pyrrolidin-1-yl)-4-(tetrahydro-pyran-4-yl)-pyridin-2-ylamino]-isonicotinonitrile] registered a Ki of 0.88 nM.

Turning to `CC1CCCN1c1cc(C2CCN(S(C)(=O)=O)C2)cc(Nc2cc(C(F)(F)F)ccn2)n1` (stereo not drawn) [Example 132, [4-(1-Methanesulfonyl-pyrrolidin-3-yl)-6-(2-methyl-pyrrolidin-1-yl)-pyridin-2-yl]-(4-trifluoromethyl-pyridin-2-yl)-amine], the Ki came out at 2.12 nM. Turning to `CC1CCCN1c1cc(C2CCN(C(=O)c3cn(C)cn3)C2)cc(Nc2cc(C(F)(F)F)ccn2)n1` (stereo not drawn) [Example 133, (1-Methyl-1H-imidazol-4-yl)-{3-[2-(2-methyl-pyrrolidin-1-yl)-6-(4-trifluoromethyl-pyridin-2-ylamino)-pyridin-4-yl]-pyrrolidin-1-yl}-methanone], the Ki came out at 0.66 nM.

What is called Ki is the dissociation constant of the complex between target and ligand, obtained from inhibition or displacement. Higher therefore signals a looser hold on the target.
